The numbers were not newly measured in patent publication US20140248291A1, “Modulation of Cellular Migration” (THE UAB RESEARCH FOUNDATION, priority 2011, published 2014), which cites them from elsewhere.

Data set [1] deals with BK-induced hypotension and plasma extravasation. The following applies: in vivo; cited from earlier work.
A further data set has as its target T1, rat B2R (Rattus norvegicus, UniProt P25023).
T1 sequence (P25023 1-396): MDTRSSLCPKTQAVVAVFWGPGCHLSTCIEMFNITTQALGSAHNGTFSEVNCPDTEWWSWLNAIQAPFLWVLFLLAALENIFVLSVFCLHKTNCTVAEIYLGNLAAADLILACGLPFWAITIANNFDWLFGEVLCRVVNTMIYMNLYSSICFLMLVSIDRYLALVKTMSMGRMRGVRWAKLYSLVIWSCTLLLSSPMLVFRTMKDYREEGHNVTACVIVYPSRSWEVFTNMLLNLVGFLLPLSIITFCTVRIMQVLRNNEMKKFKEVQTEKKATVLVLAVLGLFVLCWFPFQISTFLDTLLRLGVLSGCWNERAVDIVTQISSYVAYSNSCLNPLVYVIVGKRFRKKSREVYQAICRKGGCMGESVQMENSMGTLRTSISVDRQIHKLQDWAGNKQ
The following applies: n=3, read-out: IC50, BK-induced [3H]-IP3 formation; cited from earlier work.

A further data set addresses T2, rat B1 BK receptor (Rattus norvegicus, UniProt P97583).
T2 sequence (P97583 1-337): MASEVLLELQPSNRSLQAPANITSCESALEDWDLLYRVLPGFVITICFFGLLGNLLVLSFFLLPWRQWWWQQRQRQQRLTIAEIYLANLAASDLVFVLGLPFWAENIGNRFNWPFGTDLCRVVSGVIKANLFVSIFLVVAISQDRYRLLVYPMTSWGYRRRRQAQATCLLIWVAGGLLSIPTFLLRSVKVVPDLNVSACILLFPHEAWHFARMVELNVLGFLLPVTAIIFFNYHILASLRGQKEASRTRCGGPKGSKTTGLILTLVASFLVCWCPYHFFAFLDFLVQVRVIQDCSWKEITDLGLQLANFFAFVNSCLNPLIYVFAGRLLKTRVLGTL
To be noted: cited from earlier work.

Another data set concerns the target T3, human B1 BK receptor (Homo sapiens, UniProt P46663).
T3 sequence (P46663 1-353): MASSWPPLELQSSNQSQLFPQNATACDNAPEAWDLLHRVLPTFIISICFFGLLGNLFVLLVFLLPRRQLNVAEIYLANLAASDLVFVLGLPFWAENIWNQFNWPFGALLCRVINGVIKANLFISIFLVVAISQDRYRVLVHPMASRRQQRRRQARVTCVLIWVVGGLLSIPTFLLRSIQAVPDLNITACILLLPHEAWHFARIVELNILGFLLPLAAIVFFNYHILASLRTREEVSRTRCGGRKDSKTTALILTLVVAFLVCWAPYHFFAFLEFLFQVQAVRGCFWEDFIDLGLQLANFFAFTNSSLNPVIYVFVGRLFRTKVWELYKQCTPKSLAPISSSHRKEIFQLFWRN
To be noted: cited from earlier work.

For data set [2] the following is noted: in vivo; cited from earlier work.
Another data set concerns the target BK (Homo sapiens, UniProt P30411). The following applies: cited from earlier work.

Molecules are shown by their SMILES.

Chain of BK (P30411 whole entry, species assumed): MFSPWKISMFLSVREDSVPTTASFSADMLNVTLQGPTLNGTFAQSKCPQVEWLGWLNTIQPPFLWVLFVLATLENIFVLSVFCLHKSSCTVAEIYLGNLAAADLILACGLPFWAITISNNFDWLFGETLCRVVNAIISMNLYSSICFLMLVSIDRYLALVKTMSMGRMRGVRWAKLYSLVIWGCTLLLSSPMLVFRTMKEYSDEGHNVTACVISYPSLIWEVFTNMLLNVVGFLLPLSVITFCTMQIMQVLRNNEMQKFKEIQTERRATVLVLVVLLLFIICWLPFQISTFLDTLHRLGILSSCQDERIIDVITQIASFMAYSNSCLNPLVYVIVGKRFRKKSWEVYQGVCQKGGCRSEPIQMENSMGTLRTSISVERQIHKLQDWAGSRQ

A word on the IC50: it is the concentration at which inhibition is half-maximal. `CN(C)CCN(C)CCNC(=O)[C@@H]1CCCN1S(=O)(=O)c1ccc(NNC(=S)NC(c2ccccc2)c2ccccc2)c([N+](=O)[O-])c1` [Bradyzide]: in data set [1], the BK-induced hypotension result is on record as “blocks” and the BK-induced plasma extravasation result was “blocks”. Besides, at rat B2R, the IC50 was 11.6 ± 1.4 nM. The “interaction with rat B1 BK receptor” value at rat B1 BK receptor was “does not interact”. In addition, the “interaction with human B1 BK receptor” value on human B1 BK receptor was “does not interact”. Also, in data set [2], the oral availability entry was “orally available”.
`N=C(N)NCCCC(NC(=O)[C@H](N)CCCNC(=N)N)C(=O)N1CCC[C@H]1C(=O)N1C[C@H](O)C[C@H]1C(=O)NCC(=O)N[C@@H](Cc1cccs1)C(=O)N[C@@H](CO)C(=O)N1Cc2ccccc2C[C@@H]1C(=O)N1C2CCCCC2C[C@H]1C(=O)N[C@H](CCCNC(=N)N)C(=O)O` (stereo partly drawn) [HOE-140, D-Arg-[Hyp^3, Thi^5, D-Tic^7, Oic^8]bradykinin]: at BK, the “potency relative to D-Arg-[Hyp^2, Thi^5,8, D-Phe^7]BK” value was “two to three orders of magnitude more potency”.
